# Earlier results in patent US20170368079A1, “ANTI-INFLAMMATORY AND ANTIDIABETIC AGENTS” (priority 2016, published 2017).
# Where two headings read alike, the source gives them in different places.
# How the values were obtained:
# [1] = system: patients with type 2 diabetes
# [2] = system: glucocorticoid metabolism; conditions: mice; pattern differs between liver and subcutaneous adipose tissue
# [3] = system: glucocorticoid metabolism; conditions: humans; pattern differs between liver and subcutaneous adipose tissue
# [4] = compared with placebo, in contrast to aspirin
# platelet aggregation = conditions: unlike aspirin
# prostaglandin synthesis = conditions: in vivo; compared with aspirin and indomethacin
smiles,measurement,setting,value
"O=C(Oc1ccccc1C(=O)O)c1ccccc1O [salsalate, 2-(2-hydroxybenzoyl)oxybenzoic acid]",C-reactive protein,[1],lowers
same,HbA1c levels,[1],lowers
same,adiponectin concentrations,[1],increase
same,blood glucose,[1],lowers
same,circulating insulin,[1],increase
same,free fatty acid,[1],lowers
same,glucose utilization,[1],improve
same,triglycerides,[1],lowers
same,glucocorticoid metabolism,[2],alters glucocorticoid metabolism
same,glucocorticoid metabolism,[3],alters glucocorticoid metabolism
same,fecal gastrointestinal blood loss,[4],no greater fecal gastrointestinal blood loss than placebo
same,inhibition of platelet aggregation,platelet aggregation,does not inhibit platelet aggregation
same,anti-inflammatory activity,prostaglandin synthesis,equivalent to aspirin and indomethacin
